IC50 and viability, T/C data for three molecules are collected here from PubChem BioAssay AID1963831 (Molecular Pharmacology Branch, DTP, NCI, 2024).

The test system of this test is 889142-216-R-J1-PDC complex spheroid viability. Nature of the test: Anticancer human tumor 889142-216-R-J1-PDC patient-derived bladder carcinoma cell line growth inhibition [POLQ]. The following applies: for viability, T/C: stronger effect = lower value. The method in brief: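 Patient-derived tumour cells were co-cultured with HUVEC and mesenchymal stem cells as multicellular spheroids at 37 °C. They were treated with POLQ inhibitors (novobiocin, ART-558, RP6685) alone or combined with other agents. Top concentrations were at or near clinical Cmax (otherwise 10 microM; SN-38 at 1 microM), decreasing in half-log steps.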

“And” between values parts separate entries of the source, which are not always exact repeats. Identical values can stand only once.
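Also: spheroids exposed to compounds for seven days.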
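For viability, T/C in this document: 100% = DMSO vehicle control viability.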

On to `COc1cccc2c1C(=O)c1c(O)c3c(c(O)c1C2=O)CC(O)(C(=O)CO)CC3OC1CC(N)C(O)C(C)O1` (stereo unspecified) + COC1C(OC(N)=O)C(O)C(Oc2ccc3c(O)c(NC(=O)c4ccc(O)c(CC=C(C)C)c4)c(=O)oc3c2C)OC1(C)C, for which the IC50 stood at 170 nM (curve of first compound, second compound 0.0316 µM); 164 nM (curve of first compound, second compound 0.1 µM); 173 nM (curve of first compound, second compound 0.316 µM); 173 nM (curve of first compound, second compound 1 µM); 254 nM (curve of first compound, second compound 3.16 µM); 219 nM (curve of first compound, second compound 10 µM). The viability, T/C runs as follows: (second compound 0.0316 µM, first compound 0.0316 µM) 59.9%; (second compound 0.0316 µM, first compound 0.1 µM) 68.7%; (second compound 0.0316 µM, first compound 0.316 µM) 33.4%; (second compound 0.0316 µM, first compound 1 µM) 2.42%; (second compound 0.0316 µM, first compound 3.16 µM) 0.42%; (second compound 0.0316 µM, first compound 10 µM) 0.92%. Further, the viability, T/C (second compound 0.1 µM, first compound 0.0316 µM) was 53.4%; the viability, T/C (second compound 0.1 µM, first compound 0.1 µM) is 67.9%; the viability, T/C (second compound 0.1 µM, first compound 0.316 µM) was 36%; the viability, T/C (second compound 0.1 µM, first compound 1 µM) is 4.22%; the viability, T/C (second compound 0.1 µM, first compound 3.16 µM) was 0.75%; the viability, T/C (second compound 0.1 µM, first compound 10 µM) was 0.62%. The viability, T/C (second compound 0.316 µM, first compound 0.0316 µM) is 56.7%; the viability, T/C (second compound 0.316 µM, first compound 0.1 µM) is 67.5%; the viability, T/C (second compound 0.316 µM, first compound 0.316 µM) is 36.8%; the viability, T/C (second compound 0.316 µM, first compound 1 µM) was 1.29%; the viability, T/C (second compound 0.316 µM, first compound 3.16 µM) is 0.94%; the viability, T/C (second compound 0.316 µM, first compound 10 µM) is 0.7%. In addition, the viability, T/C is 60.6% (second compound 1 µM, first compound 0.0316 µM); 63.1% (second compound 1 µM, first compound 0.1 µM); 37.3% (second compound 1 µM, first compound 0.316 µM); 3.64% (second compound 1 µM, first compound 1 µM); 0.4% (second compound 1 µM, first compound 3.16 µM); 1.06% (second compound 1 µM, first compound 10 µM). Also, the viability, T/C (second compound 3.16 µM, first compound 0.0316 µM) was 62.3%; the viability, T/C (second compound 3.16 µM, first compound 0.1 µM) is 59.1%; the viability, T/C (second compound 3.16 µM, first compound 0.316 µM) is 47.5%; the viability, T/C (second compound 3.16 µM, first compound 1 µM) is 2.54%; the viability, T/C (second compound 3.16 µM, first compound 3.16 µM) was 0.84%; the viability, T/C (second compound 3.16 µM, first compound 10 µM) was 0.98%. Further, the viability, T/C by setting is: (second compound 10 µM, first compound 0.0316 µM) 62%; (second compound 10 µM, first compound 0.1 µM) 62.5%; (second compound 10 µM, first compound 0.316 µM) 44.3%; (second compound 10 µM, first compound 1 µM) 2.05%; (second compound 10 µM, first compound 3.16 µM) 1.06%; (second compound 10 µM, first compound 10 µM) 0.92%.

Take `CC(C)n1c(=O)n(C)c2cnc3cc(F)c(-c4ccc(OCCCN5CCCCC5)nc4)cc3c21`: the viability, T/C (compound 0.0316 µM) is 78.6% and 82.9% and 98.3%; the viability, T/C (compound 0.1 µM) was 101% and 92.7% and 85.2%; the viability, T/C (compound 0.316 µM) was 67.3% and 87% and 77.9%; the viability, T/C (compound 1 µM) is 63.5% and 85.9% and 71.9%; the viability, T/C (compound 3.16 µM) was 56.2% and 77.5% and 64.2%; the viability, T/C (compound 10 µM) is 17.9% and 67.2% and 43.8%. Moreover, the IC50 (curve of compound) is 3190 nM and > 10000 nM and 7640 nM.

On to `C=CCn1c(=O)c2cnc(Nc3ccc(N4CCN(C)CC4)cc3)nc2n1-c1cccc(C(C)(C)O)n1`, for which the viability, T/C by setting is: (compound 0.00316 µM) 97.5% and 109% and 88.1%; (compound 0.01 µM) 87.6% and 92.1% and 104%; (compound 0.0316 µM) 97.2% and 110% and 104%; (compound 0.1 µM) 80.1% and 100% and 88.6%; (compound 0.316 µM) 57.7% and 70.7% and 79.8%; (compound 1 µM) 54.2% and 67% and 62.5%. Moreover, the half-maximal inhibitory concentration (IC50) (curve of compound) is > 1000 nM.

A word on the IC50: it is the concentration that gives 50% inhibition. What is called viability, T/C is the ratio of treated to control.
